From patent US20220274927A1, “MEMBRANE-ACTIVE ANTI-BACTERIAL COMPOUNDS AND USES THEREOF” (Trustees of Dartmouth College, priority 2019, published 2022)
≈ marks a conversion by molar mass, not a printed value. Entries after “also recorded” stand apart in the source; their conditions may differ. Read-outs that look alike come from different tables or passages of the source.

Legend:
S. aureus NIH04008 = assay: Antimicrobial susceptibility MIC, S. aureus NIH04008; format: cell-based; conditions: Staphylococcus aureus, NIH04008
Source text: (§1) The first set of compounds evaluated were analogs at the C-7 and C-8 positions of the initial quinolone hit DNAC-2 since the other HTS hits identified (data not shown) were substituted at these positions (Table 1). Applicants first explored modification at the C-7 position with a small series of electron-donating and withdrawing substituents. […] However, analogs containing electron donating groups at C-7 including ethyl 7, benzyloxy 8, methoxy 9 and methylthio 10 are weakly active displaying MICs of 320-640 μg/mL indicating electron-donating substituents at C-7 are poorly tolerated. […] The C-8 position was evaluated with trifluoromethyl 4 and trifluoromethoxy 5 containing the optimal C-7 substituents. Both 4 and 5 are equipotent to the corresponding C-7 analogs 2 and 3 indicating some flexibility of the quinolone scaffold.
(§2) The compounds maintain activity against Staphylococcus epidermidis; however, 31, 111 and 123 all lose considerable potency against Enterococcus faecalis and Enterococcus faecium, which contribute heavily, along with MRSA, to healthcare-associated infections.

E. cloacae ND-21 = assay: Antimicrobial susceptibility MIC, E. cloacae ND-21; format: cell-based; conditions: Enterobacter cloacae, ND21; E. cloacae strain ND-21
Source text: as §1, §2

[1] = system: MRSA clinical strain S. aureus FPR3757; assay: Minimum bactericidal concentration (MBC) against S. aureus FPR3757; format: cell-based
K. pneumonia 7117 = assay: Antimicrobial susceptibility MIC, K. pneumonia 7117; format: cell-based; conditions: Klebsiella pneumoniae; K. pneumonia strain 7117
Source text: as §1, §2

[2] = system: methicillin-resistant S. aureus (FPR3757); assay: MIC against clinical MRSA strain FPR3757 in Mueller-Hinton broth (CLSI); format: cell-based, Staphylococcus aureus
Source text: as §1

E. faecium ATCC19579 = assay: Antimicrobial susceptibility MIC, E. faecium ATCC19579; format: cell-based; conditions: Enterococcus faecium
Source text: as §1, §2

S. aureus (MRSA) = assay: In vitro time-kill assay; format: cell-based; conditions: 1× MIC, initial inoculum 10^5 CFU, plating over six hours
Experimental: FIG. 4 illustrates in vitro time-kill analysis of methicillin resistant Staphylococcus aureus (MRSA). Bacterial killing was monitored by measuring the colony forming unit (CFU) for six hours when treated with compounds 22, 31, 117, and 123 at 1× the minimum inhibitory concentration (MIC) of each compound. The CFU at each time point was determined by plating and then compared to a dimethyl sulfoxide (DMSO) control.
While the MIC data confirmed that these compounds were at least bacteriostatic, Applicants wanted to test for bactericidal properties of both the aminoquinoline and aminoquinolone scaffolds. […] The kinetics of bacterial killing was assessed in vitro using time-kill assays by incubating compounds at 1× their MIC with an initial inoculum of 10^5 colony forming units (CFU) of S. aureus and removing aliquots at various time points to determine the residual CFU by plating.

S. aureus MW2 = assay: Antimicrobial susceptibility MIC, S. aureus MW2; format: cell-based; conditions: Staphylococcus aureus, MW2
Source text: as §1, §2

E. faecalis SMC374 = assay: Antimicrobial susceptibility MIC, E. faecalis SMC374; format: cell-based; conditions: Enterococcus faecalis
Source text: as §1, §2

E. coli DHMC-1 = assay: Antimicrobial susceptibility MIC, E. coli DHMC-1; format: cell-based; conditions: Escherichia coli, DHMC1; E. coli strain DHMC-1
Source text: as §1, §2

C. albicans = assay: Antimicrobial susceptibility, C. albicans; format: cell-based, Candida albicans; conditions: highest concentration tested
Source text: as §2

[3] = system: S. aureus (strain USA300); assay: Transmission electron microscopy of treated cells; format: cell-based; conditions: 1× MIC, after 10 minutes, vs DMSO
Experimental: FIGS. 6A, 6B and 6C illustrate transmission electron microscopy (TEM) imaging of MRSA USA300 treated with compounds 22 and 31.
Transmission electron microscopy (TEM) and fluorescence microscopy (FM) allowed Applicants to directly observe the effects of the novel 4-aminoquinolines […] 5-aminoquinolones on the cell morphology of staphylococci.
(§3) These cellular defects were not seen in any of the control cells treated with DMSO. Fluorescent microscopy was performed on a S. aureus (strain COL) strain after treatment with either DMSO, 31 or 123 for 30 minutes followed by staining with FM 4-64 (red membrane stain), bodipy-vancomycin (Van-FL, green stain), and Hoechst (blue DNA stain).

sheep erythrocytes = assay: in vitro; format: cell-based; conditions: sheep, 32 μg/mL
Experimental: (§4) FIG. 8 illustrates percent hemolysis analysis of sheep erythrocytes. Concentration-dependent hemolysis was measured by monitoring the optical density (OD)540 of PBS-washed sheep erythrocytes. Complete hemolysis (100%) was confirmed by treatment of erythrocytes with Triton X-100. Data points represent the mean±SD of triplicate experiments.
(§5) The macromolecular synthesis assay, TEM, and FM experiments were all consistent with membrane disruption. […] The high membrane selectivity of the 5-aminoquinolin-4-ones in this assay is impressive and is in accordance with the observed therapeutic index (CC50/MIC).

[4] = system: clinical methicillin-resistant Staphylococcus aureus (MRSA) isolates; assay: MIC against panel of MRSA / staphylococcal strains (text summaries); format: cell-based; conditions: six S. aureus strains of Table 9, read-out: MIC towards all six S. aureus strains
Source text: as §1, §2

Staphylococcus simulans = assay: Macromolecular synthesis assays (radiolabeled precursor incorporation); format: cell-based
Source text: FIG. 5 illustrates macromolecular synthesis assays (representative data with 123). Time-course for inhibition of incorporation of radiolabeled precursors [^3H]-L-isoleucine (protein), [^3H]-thymidine (DNA), [^3H]-uridine (RNA), and [^3H]-glucosamine (cell wall) in S. simulans by 123 at 0.5×, 1× and 5×MIC. Data are expressed as the percentage of inhibition relative to the DMSO only negative control. The positive control antibiotics denoted by closed circles were used at 10× MIC. Data represent the mean±standard deviation (SD) of triplicate experiments.
Classical macromolecular synthesis assays were performed to provide insight on the putative mechanism of action of the most promising quinoline 31 and quinolone 123 candidates. Disruption of bacterial membranes is not only rapid, but interferes with all major metabolic activities in the cell and is thus easily distinguished by macromolecular synthesis assays. […] The control antibiotics ciprofloxacin, rifampicin, vancomycin and tetracycline were included as inhibitors of DNA, RNA, cell wall, and protein synthesis, respectively. The cells were quenched at various time points with 10% trichloroacetic acid (TCA), filtered, washed and the amount of precursor incorporation was quantified by scintillation counting.

S. aureus (strain COL) = assay: Fluorescent microscopy of membrane, cell wall and DNA; format: cell-based; conditions: 1× MIC, 30 minutes, vs DMSO
Experimental: FIGS. 7A and 7B illustrate fluorescent microscopy (FM) analysis of the membrane, cell wall, and DNA in MRSA. FM of COL MRSA strain treated with compound 123 (FIG. 7B, bottom row) at 1×MIC and DMSO (FIG. 7A, top row) for 30 minutes followed by staining with FM-64 (far left column, 0.5 μg/mL), VanFL (second column, 1 μg/mL), and Hoechst (third column, 1 μg/mL) for 5 minutes and washed with 1× phosphate buffered saline (PBS) before imaging (fourth column, overlay).
as §3

[5] = system: S. aureus membranes (versus erythrocyte membranes); assay: in vitro; format: cell-based, sheep; conditions: sheep
Experimental: as §4, §5

[6] = Staphylococcus aureus, MRSA, MRSA clinical strain FPR3757, Mueller-Hinton broth, CLSI guidelines, complete inhibition of observable growth, read-out: MIC
[7] = MRSA clinical strain FPR3757, Mueller-Hinton broth, CLSI guidelines, complete inhibition of observable growth

Question: What does the source list for FC(F)(F)c1ccc2c(Nc3ccc(Cl)c(Cl)c3)cc(C(F)(F)F)nc2c1 [Compound 22]?
Answer: MIC (S. aureus NIH04008): 0.125 µg/mL (≈ 0.294 µM); MIC (E. cloacae ND-21): > 4 µg/mL; MBC relative to MIC [1]: MBCs equal to their MIC values; MIC (K. pneumonia 7117): > 4 µg/mL; MIC ([2]; Staphylococcus aureus, MRSA): 0.0625 µg/mL (≈ 0.147 µM); MIC [2, 6]: 0.06 µg/mL (≈ 0.141 µM); MIC (E. faecium ATCC19579; ATCC19579): 0.125 µg/mL (≈ 0.294 µM); time-kill: CFU reduction (S. aureus (MRSA)): reduced the CFU below the limit of detection at four to six hours; MIC (S. aureus MW2): 0.125 µg/mL (≈ 0.294 µM); MIC (E. faecalis SMC374; SMC374): 0.125 µg/mL (≈ 0.294 µM); MIC (E. coli DHMC-1): > 4 µg/mL; MIC against C. albicans as multiple of MIC (C. albicans): >16× × MIC

Question: What does the source list for FC(F)(F)c1ccc(Nc2cc(C(F)(F)F)nc3cc(C(F)(F)F)ccc23)nc1 [Compound 31]?
Answer: MIC (S. aureus NIH04008): 0.125 µg/mL (≈ 0.294 µM); MIC (E. cloacae ND-21): > 64 µg/mL; MBC relative to MIC [1]: MBCs equal to their MIC values; MIC (K. pneumonia 7117): > 64 µg/mL; cell morphology in TEM images [3]: cross-wall-septum formation with reduced splitting; also recorded: mesosome-like membrane inclusions; hemolysis (sheep erythrocytes): None of the compounds except 76, displayed any hemolysis; fold loss of potency (MIC) relative to the comparator ([2]; MRSA FPR3757 MIC ratio): 4 fold; MIC [2, 6]: 0.25 µg/mL (≈ 0.588 µM); MIC (E. faecium ATCC19579; E. faecium strain ATCC19579, read-out: MIC): 0.25 to 1 µg/mL (≈ 0.588 to 2.35 µM); time-kill: CFU reduction (S. aureus (MRSA)): reduced the CFU below the limit of detection at four to six hours; MIC [4]: 0.125 to 0.25 µg/mL (≈ 0.294 to 0.588 µM); inhibition of DNA, RNA, protein and cell-wall synthesis (Staphylococcus simulans; 0.5×, 1× and 5× MIC): concentration-dependent inhibition of DNA, RNA, protein and cell-wall synthesis; inhibition of macromolecular processes at 5× MIC (Staphylococcus simulans; 5× the MIC, DNA, RNA, protein, cell wall precursor incorporation): completely inhibited all macromolecular processes; MIC (S. aureus MW2): 0.125 µg/mL (≈ 0.294 µM); MIC (E. faecalis SMC374; E. faecalis strain SMC374, read-out: MIC): 2 µg/mL (≈ 4.7 µM); MIC (E. coli DHMC-1): > 64 µg/mL; MIC against C. albicans as multiple of MIC (C. albicans): >16× × MIC; DNA and cell wall staining (Hoechst, Van-FL) (S. aureus (strain COL)): little or no change compared to the DMSO control; membrane staining (FM 4-64) (S. aureus (strain COL)): membrane defects

Question: Which MIC [2, 7] does the source give for FC(F)(F)c1ccc2c(N3CCc4cccnc43)cc(C(F)(F)F)nc2c1 [Compound 63] here?
Answer: >32 µg/mL

Question: And the MIC [2, 6]?
Answer: > 32 µg/mL

Question: With O=C1Cc2cc(Nc3cc(C(F)(F)F)nc4cc(C(F)(F)F)ccc34)ccc2N1 [Compound 64] as the compound, how does the MIC [2, 7] read?
Answer: >32 µg/mL

Question: What about the MIC [2, 6] of the same compound?
Answer: > 32 µg/mL

Question: What does the source list for O[C@H]1C[C@H]2CC[C@@H](C1)C2Nc1cc(C(F)(F)F)nc2cc(C(F)(F)F)ccc12 (some centres unmarked) [Compound 65]?
Answer: MIC [2, 7]: >32 µg/mL; MIC [2, 6]: > 32 µg/mL

Question: Which results are given for FC(F)(F)c1ccc2c(Nc3ccc(Cl)c(Cl)c3)nc(C(F)(F)F)nc2c1 [Compound 89]?
Answer: fold loss of potency (MIC) relative to the comparator ([2]; MRSA FPR3757 MIC ratio): 8 fold; MIC [2, 7]: 0.5 µg/mL (≈ 1.17 µM)

Question: Which results are given for FC(F)(F)Oc1cccc(Nc2nc(C(F)(F)F)nc3cc(C(F)(F)F)ccc23)c1 [Compound 90]?
Answer: fold increase in potency (MIC) relative to the comparator ([2]; MRSA FPR3757 MIC ratio): 8 fold; MIC [2, 7]: 1 µg/mL (≈ 2.27 µM)

Question: FC(F)(F)c1ccc(Nc2nc(C(F)(F)F)nc3cc(C(F)(F)F)ccc23)nc1 [Compound 91] was tested. Which “fold loss of potency (MIC) relative to the comparator” value ([2]; MRSA FPR3757 MIC ratio) did it give?
Answer: 8 fold

Question: For FC(F)(F)c1ccc(Nc2cc(N3CCNCC3)nc3cc(C(F)(F)F)ccc23)nc1 [Compound 102], which MIC [2, 7] is on record?
Answer: 0.5 to 1 µg/mL

Question: How did the MIC [2, 7] turn out when FC(F)(F)c1ccc(Nc2cc(N3CCNCC3)c3ccc(C(F)(F)F)cc3n2)nc1 [Compound 103] was run?
Answer: 4 to 8 µg/mL

Question: For FC(F)(F)c1ccc(Nc2cc(N3CCOCC3)c3ccc(C(F)(F)F)cc3n2)nc1 [Compound 105], which MIC [2, 7] is on record?
Answer: 8 µg/mL (≈ 18.1 µM)

Question: How did the selectivity ratio [5] turn out when O=c1cc(C(F)(F)F)[nH]c2cc(C(F)(F)F)cc(Nc3ccc(Cl)c(Cl)c3)c12 [Compound 108] was run?
Answer: > 500

Question: What about the MIC [2, 6] of the same compound?
Answer: < 0.06 µg/mL
